Assay results published in PubChem BioAssay (NCI).
“And” between values parts separate entries of the source, which are not always exact repeats. Equal values may be shown once.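 Exposure lasted 48 hours, with cells grown in 96-well plates and compounds tested at five concentrations. GI50: concentration for 50% inhibition of growth. TGI marks complete inhibition of growth.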 Where a SMILES comes first, the peptide text is derived from it. [ ]: non-standard residue; d: D form. The star is where a group is joined. NMeF = CN[CH](Cc1ccccc1)C(=O)O; NMeV = CN[CH](C(=O)O)C(C)C; Boc = CC(C)(C)OC(=O)*; OBn = c1ccc(CO*)cc1

Experiments:
Test in all cases: NCI anticancer screen, dose series, 48 h
786-0 renal = test system: 786-0 renal
ACHN renal = test system: ACHN renal
HCT-116 colon = test system: HCT-116 colon
HL-60(TB) leukemia = test system: HL-60(TB) leukemia
IGROV1 ovarian = test system: IGROV1 ovarian
NCI-H522 lung = test system: NCI-H522 lung
RXF 393 renal = test system: RXF 393 renal
SF-295 CNS = test system: SF-295 CNS
SNB-75 CNS = test system: SNB-75 CNS
U251 CNS = test system: U251 CNS
UACC-62 melanoma = test system: UACC-62 melanoma
RPMI-8226 leukemia = test system: RPMI-8226 leukemia
BT-549 breast = test system: BT-549 breast
MCF7 breast = test system: MCF7 breast
NCI/ADR-RES ovarian = test system: NCI/ADR-RES ovarian

Compound	TGI (786-0 renal) [µM]	TGI (ACHN renal) [µM]	TGI (HCT-116 colon) [µM]	TGI (HL-60(TB) leukemia)	TGI (IGROV1 ovarian) [µM]	TGI (NCI-H522 lung)	TGI (RXF 393 renal) [µM]	TGI (SF-295 CNS) [µM]	TGI (SNB-75 CNS) [µM]	TGI (U251 CNS) [µM]	TGI (UACC-62 melanoma) [µM]	TGI (RPMI-8226 leukemia) [µM]	TGI (BT-549 breast) [µM]	TGI (MCF7 breast) [µM]	TGI (NCI/ADR-RES ovarian) [µM]	GI50 (ACHN renal)	GI50 (RPMI-8226 leukemia)	GI50 (SF-295 CNS) [µM]
CNC(=O)C(C)Oc1ccc(OCC2CCCCC2)cc1 (stereo not drawn)	> 100	> 100	> 100	> 100 µM	> 100	> 100 µM	> 100	> 100	> 100	> 100	> 100	–	–	–	–	–	–	–
CC1(C)c2ccccc2N2C(c3ccccc3)=NOC21C (stereo not drawn)	> 100	> 100	> 100	> 100 µM	> 100	> 100 µM	> 100	> 100	> 100	> 100	> 100	> 100	–	–	–	–	–	–
CN(C)NC1=C([N+](=O)[O-])C=NN(c2ccccc2)C1	3.24	3.18	3.26	4.62 µM	3.9	0.343 µM	3.46	3.2	3.34	3.17	3.14	–	–	–	–	–	–	–
Clc1sc(Cl)c2c1[C@H](Cl)C[C@@H]2Cl	48.9	95	20.9	–	38.6	3.31 µM	–	> 100	64.7	48.2	43.7	–	62.5	> 100	37.4	–	–	–
S=C1NC2=C(CSC/C2=C\c2ccc(Cl)cc2)C(c2ccc(Cl)cc2)N1 (stereo not drawn)	84	> 100	> 100	70.7 µM	> 100	> 100 µM	–	> 100	–	> 100	> 100	94.5	–	> 100	> 100	–	–	–
C=C(C)[C@H]1CC[C@@]23O[C@@H]2[C@@H](C[C@@]2(C)CC(=O)[C@H](CC(=O)C1)O2)OC(=O)[C@@]12CC[C@H](C(=C)C)CC(=O)C[C@H]4O[C@](C)(CC4=O)C[C@@H](OC3=O)[C@@H]1O2	> 100	> 100	> 100	> 100 µM	> 100	> 100 µM	> 100	> 100	> 100	> 100	> 100	> 100	–	> 100	> 100	–	–	–
CNc1cc([N+](=O)[O-])ccc1C(=O)N1CCC[C@H]1CO	> 100	> 100	> 100	> 100 µM	> 100	> 100 µM	–	> 100	> 100	> 100	> 100	> 100	–	> 100	> 100	–	–	–
CCN(CC)C(=O)CCn1cc(F)c(=O)[nH]c1=O	> 100	> 100	> 100	> 100 µM	> 100	> 100 µM	> 100	> 100	> 100	> 100	> 100	> 100	–	–	–	–	–	–
CC(C)C(NC(=O)OC(C)(C)C)C(=O)N(C)C(Cc1ccccc1)C(=O)N(C)C(C(=O)OCc1ccccc1)C(C)C (stereo not drawn) (Boc-Val-[NMeF]-[NMeV]-OBn; configuration not given here)	> 100	> 100	> 100	> 100 µM and 53.9 µM	> 100	29.7 µM and 69 µM	–	> 100	–	> 100	> 100	> 100	–	–	–	> 100 µM and 41 µM	10.8 µM and 25.3 µM	–
O[C@@]1(C#Cc2ccc3c(c2)OCO3)CCC[C@H]1NCc1ccccc1	31.3	> 100	–	39.1 µM	46.9	29.8 µM	86.2	40.3	89.8	59.6	36.4	56	–	55.3	40.6	–	–	–
Cc1ccc(Sc2ccccc2C23OC(C)(C4C(=O)N(c5ccccc5)C(=O)C42)N(C)C3=O)cc1 (stereo not drawn)	> 100	> 100	> 100	> 100 µM	> 100	> 100 µM	> 100	> 100	> 100	> 100	> 100	–	> 100	–	> 100	–	–	–
COC(=O)[C@@H]1CN(C(=O)CCc2ccccc2)C(=O)N1	> 100	> 100	> 100	> 100 µM	> 100	> 100 µM	> 100	> 100	–	> 100	–	> 100	–	–	> 100	–	–	–
CCC12C=CCN(CCc3c([nH]c4ccccc34)/C=C\1)C2 (stereo not drawn)	> 100	> 100	> 100	> 100 µM	> 100	> 100 µM	–	> 100	> 100	> 100	> 100	> 100	–	–	–	–	–	–
O=C1CSC(c2ccccc2O)N1c1ccc2c(c1)Oc1c(Cl)c3c(c(Cl)c1=N2)Oc1cc(N2C(=O)CSC2c2ccccc2O)ccc1N=3 (stereo not drawn)	> 100	55.1	> 100	> 100 µM	> 100	52 µM	44.5	> 100	–	65	–	> 100	–	> 100	> 100	–	–	–
CN(c1ccccc1)c1cc2ccccc2nn1	> 100	> 100	> 100	> 100 µM	> 100	> 100 µM	> 100	> 100	> 100	> 100	> 100	> 100	–	–	–	–	–	–
CC[C@H](C)[C@@H]([C@@H](CC(=O)N1CCC[C@H]1[C@H](OC)[C@@H](C)C(=O)NCCc1ccccc1)OC)N(C)C(=O)C(NC(=O)[C@H](C(C)C)N(C)C)C(C)C (stereo partly drawn)	1.34	> 10	0.0038	–	–	0.000434 µM	> 10	–	–	0.0068	> 10	–	> 10	> 10	> 10	–	–	0.000281
C=C1CN=C(Nc2ccc(Cl)cc2)S1	> 100	> 100	> 100	> 10 µM	> 100	–	–	> 100	> 100	> 100	–	> 100	–	> 100	> 100	–	–	–
